Reference: patent US20220106304A1, “Transcription Factor BRN2 Inhibitory Compounds as Therapeutics and Methods for Their Use” (The University of British Columbia, priority 2018, published 2022)
pIC50: −log10 of the molar value.

Key:
[1] = target: T1, BRN2 (Homo sapiens, UniProt P20265); assay: cell-based; details: negative = activation; for inhibition at 10 µM: read-out: % BRN2 Inhibition (10 μM), 10 μM compound, 24 hours, 42D^ENZR cells stably expressing BRN2-luciferase reporter; for inhibition at 30 µM: read-out: % BRN2 Inhibition (30 μM), 30 μM compound, 24 hours, 42D^ENZR cells stably expressing BRN2-luciferase reporter
T1 sequence (P20265 1-443): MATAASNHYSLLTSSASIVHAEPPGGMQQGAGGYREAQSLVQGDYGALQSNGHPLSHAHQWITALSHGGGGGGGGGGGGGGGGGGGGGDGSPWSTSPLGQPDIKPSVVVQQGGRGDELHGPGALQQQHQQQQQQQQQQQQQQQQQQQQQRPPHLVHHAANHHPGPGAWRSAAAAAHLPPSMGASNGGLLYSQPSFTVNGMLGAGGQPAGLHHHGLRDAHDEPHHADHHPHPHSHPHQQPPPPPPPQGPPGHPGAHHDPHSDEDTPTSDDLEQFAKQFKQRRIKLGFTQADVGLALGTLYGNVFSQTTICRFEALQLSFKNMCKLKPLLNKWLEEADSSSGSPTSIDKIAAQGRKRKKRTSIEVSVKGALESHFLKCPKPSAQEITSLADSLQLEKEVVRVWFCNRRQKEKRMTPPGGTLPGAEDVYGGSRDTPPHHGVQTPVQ

[2] = tested on: 42D^ENZR cells vs 16D^CRPC cells; assay: Cell proliferation specificity, 42D^ENZR cells vs 16D^CRPC cells; format: cell-based; details: 42D cells express BRN2, 16D cells do not; some also LNCaP; result in words
Method: (§1) Plate 42DENZR (˜7000 cells per well) and 16D^CRPC (˜5000 cells per well) cells in 96 well plate with a volume of 100 μL per well. • 2. Next day 1 mL aliquots of media are combined with 3× the desired concentration of compounds. The aliquots are vortexed and 50 μL of each 3× concentration is added to the 100 μL of media in each well to give the ix desired concentration.
(§2) The following are the desired concentrations:
(§3) 0, 10 nM, 100 nM, 500 nM, 1 μM, 2.5 μM, 5 μM, 10 μM, 15 μM, […], 30 μM. • 3. Approximately 72 hours later, 17 μL of 10% Glutaraldehyde is added to each well and plates are placed on a shaker for 20-30 minutes. • 4. Media is washed off the fixed cells by slow submersion in a container of water. Then the water is removed by tapping the plate upside down. • 5. 75 μL of Crystal Violet™ solution is added into the 96 well plates and placed on a shaker for ˜30 minutes. • 6. Media is washed off the fixed cells by repeated slow submersion in a container of water and the plates are allowed to dry over-night. • 7. Next day, 75 μL of Sorensen Solution is accurately pipetted into each well. The plates placed on a shaker for ˜30 minutes. • 8. Absorbance is measured in the plate at 590 nm.
Compounds that Show Specificity Towards 42D^ENZR Cells Vs 16D^CRPC Cells Progress to Step 4.
(§4) Where data is not available “na” is inserted.

[3] = Liver microsome metabolic stability, MLM; format: in vitro ADME; details: MLM (single value or second of two), 1 μM compound, 0.25 mg/mL protein; for Met Stab % (60 mins HLM/MLM): percent remaining at 60 min, 1 mM NADPH; for half-life at 1 µM: mouse, liver microsomes, pH 7.4, read-out: T1/2 in (mins HLM/MLM)
Method: Potassium phosphate buffer (Kphos) was prepared by adding 0.647 g potassium phosphate monobasic (KH2PO4) and 3.527 g potassium phosphate dibasic ([…]) to 400 mL of Milli-Q water. pH of the buffer was adjusted to 7.4 and volume was made up to 500 mL.
Microsomes (20 mg/mL) were diluted in KH2PO4 buffer to prepare a concentration of 0.357 mg/mL.
Stock solutions of BRN2 inhibitors were prepared in DMSO at a concentration of 1 mM
A stock solution of 3.33 mM NADPH (3.33×) was prepared by dissolving appropriate amount of NADPH in KH2PO4 buffer.
Total Incubation volume: 100 μL
Compound concentration: 1 μM
Protein Concentration: 0.25 mg/mL
An 1120 μL aliquot of Kphos buffer (50 mM, pH 7.4) containing liver microsomes (0.357 mg/mL) were added to individual 2 mL tubes (final concentration 0.25 mg/mL). Test compounds (1 mM) and positive controls were directly spiked into respective tubes to prepare a concentration of 1.428 μM (final concentration 1 μM). From the above mix, 70 μL was added to individual wells of 96 well reaction plates and pre-incubated in a 37° C. water bath for 5 min. All the reactions were initiated by adding 30 μL of 3.33 mM NADPH (final concentration 1 mM). Reactions without NADPH and buffer controls (minus NADPH) at 0 min and 60 min were also incubated to rule out non-NADPH metabolism or chemical instability in the incubation buffer. All reactions were terminated using 100 μL of ice-cold acetonitrile containing internal standard at 0, 5, 15, 30 and 60 min. The plates were centrifuged at 4000 RPM for 15 min and 100 μL aliquots were submitted for analysis by LC-MS/MS.
Samples were monitored for parent compounds disappearance in MRM mode using LC-MS/MS.
The percent remaining of test compounds and positive control in each sample was determined by considering peak area ratio in the 0 minute sample as 100%. The Half-life of compounds in microsomes is calculated by formula:
Half-life (t½) (min)=0.693/k, where k is gradient of line determined from plot of peak area ratio (compound peak area/internal standard peak area) against time.
In vitro intrinsic clearance (CL'int) (units in mL/min/kg) was calculated using the formula.
[formula] • For liver microsomes, scaling factor used was 45 mg microsomal protein per gm liver. • Indicates liver weight (gm) which varies species wise. For mice the liver weights are 90 gm.
as §4

[4] = tested on: 42D^ENZR cells; assay: Cell proliferation (crystal violet), BRN2 expressing 42D^ENZR cells; format: cell-based; details: 42D cells, approximately 72 hours
Method: as §1, §2, §3

Structure (SMILES)	inhibition at 10 µM [1] [%]	inhibition at 30 µM [1] [%]	specificity [2]	Met Stab % (60 mins HLM/MLM) [3] [%]	half-life at 1 µM [3] [min]	pIC50 [4]
Cc1c(-c2csc(-c3ccccn3)n2)oc2ccccc12 [VPC-18-13]	98.3	99.9	VPC-18-13 (specific)	–	–	–
c1coc(-c2nc(-c3cc4ccccc4o3)cs2)c1 [VPC-18-14]	95.9	96.6	VPC-18-14 (specific)	–	–	–
c1ccc(-n2cc(-c3nc4ccccc4o3)cn2)cc1 [VPC-18-18]	82.8	87	VPC-18-18 (specific- affects 42D but not 16D)	–	–	–
Clc1ccc2cc(-c3csc(-c4ccco4)n3)oc2c1 [VPC-18-66, 4-(6-chlorobenzofuran-2-yl)-2-(furan-2-yl)thiazole]	82	94	VPC-18-66 (specific- no effect on LNCaP and 16D)	31	42	–
c1ccc2oc(-c3csc(-c4ccoc4)n3)cc2c1 [VPC-18-76, 4-(benzofuran-2-yl)-2-(furan-3-yl)thiazole]	96.3	94.9	VPC-18-76 (specific)	1	9	–
c1coc(-c2nc(-c3coc4ccccc34)cs2)c1 [VPC-18-81, 4-(benzofuran-3-yl)-2-(furan-2-yl)thiazole]	97	99	VPC-18-81 (specific to 42D)	2	11	–
c1coc(-c2ncc(-c3cc4ccccc4o3)s2)c1 [VPC-18-90, 5-(benzofuran-2-yl)-2-(furan-2-yl)thiazole]	80	92	VPC-18-90 (specific)	0	8	–
Clc1ccc2cc(-c3csc(-c4ccc[nH]4)n3)oc2c1 [VPC-18-94, 4-(6-chlorobenzofuran-2-yl)-2-(1H-pyrrol-2-yl)thiazole]	79.6	86.9	VPC-18-94 (specific no effect on LNCaP and 16D)	21	27	–
FC(F)(F)c1ccc2cc(-c3csc(-c4ccoc4)n3)oc2c1 [VPC-18-104, 2-(furan-3-yl)-4-(6-(trifluoromethyl)benzofuran-2-yl)thiazole]	87.1	94.2	VPC-18- 104 (specific 42D not 16D)	1	10	–
Clc1ccc2cc(-c3csc(-c4ccoc4)n3)oc2c1 [VPC-18-105, 4-(6-chlorobenzofuran-2-yl)-2-(furan-3-yl)thiazole]	79.5	92	VPC-18- 105 (specific 42D not 16D)	1	10	–
FC(F)(F)c1ccc2cc(-c3csc(-c4ccc[nH]4)n3)oc2c1 [VPC-18-108]	84.4	92.6	VPC-18- 108 (specific)	15	31	–
Cc1ccc2cc(-c3csc(-c4ccco4)n3)oc2c1 [VPC-18-110, 2-(furan-2-yl)-4-(6-methylbenzofuran-2-yl)thiazole]	93.5	98.6	VPC-18- 110 (specific)	1	10	–
Clc1ccc2cc(-c3csc(-c4cc[nH]c4)n3)oc2c1 [VPC-18-115]	98	99	VPC-18- 115 (specific)	18	22	–
Clc1ccc2cc(-c3coc(-c4ccc[nH]4)n3)oc2c1 [VPC-18-127, 4-(6-chlorobenzofuran-2-yl)-2-(1H-pyrrol-2-yl)oxazole]	–	–	VPC-18- 127 (specific)	16	22	–
Clc1ccc2cc(-c3nccc(-c4ccc[nH]4)n3)oc2c1 [VPC-18-133, 2-(6-chlorobenzofuran-2-yl)-4-(1H-pyrrol-2-yl)pyrimidine]	–	–	VPC-18- 133 (specific)	1	8	–
Cn1cccc1-c1nc(-c2cc3ccc(Cl)cc3o2)cs1 [VPC-18-139, 4-(6-chlorobenzofuran-2-yl)-2-(1-methyl-1H-pyrrol-2-yl)thiazole]	–	–	VPC-18- 139 (specific)	23	30	–
FC(F)(F)c1ccc2cc(-c3nccc(-c4ccc[nH]4)n3)oc2c1 [VPC-18-140, 4-(1H-pyrrol-2-yl)-2-(6-(trifluoromethyl)benzofuran-2-yl)pyrimidine]	–	–	VPC-18- 140 (specific)	2	10	–
Clc1ccc2cc(-c3nccc(-c4ccco4)n3)oc2c1 [VPC-18-141, 2-(6-chlorobenzofuran-2-yl)-4-(furan-2-yl)pyrimidine]	–	–	VPC-18- 141 (specific)	3	13	–
Clc1ccc2cc(-c3cccc(-c4ccc[nH]4)n3)oc2c1 [VPC-18-149]	94.6	96.2	not 16D	21	30	6.00
Cc1c(-c2csc(-c3ccc[nH]3)n2)oc2cc(Cl)ccc12 [VPC-18-155]	–	–	not 16D	24	31	5.00
Cn1c(-c2ccc(-c3ccccc3)o2)nc2ccccc21 [VPC-18]	97.6	99.4	VPC-18 (42D not 16D)	–	–	–
